From PubChem BioAssay (NCI)
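Where inhibition never reached the appropriate level, the endpoint shown equals the highest concentration tested. Otherwise, values were interpolated linearly from a five-concentration, 48-hour dose response in 96-well plates. Abbreviation: GI50, concentration required for 50% inhibition of growth. Definition used: TGI = concentration required for complete inhibition of growth.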

What was measured:
Experiment in all cases: DTP human tumour cell line panel, 48 h
[1] = tested on: OVCAR-5 ovarian
[2] = tested on: SNB-75 CNS
[3] = tested on: HCT-116 colon
[4] = tested on: UACC-62 melanoma
[5] = tested on: OVCAR-8 ovarian
[6] = tested on: NCI/ADR-RES ovarian
[7] = tested on: LOX IMVI melanoma
[8] = tested on: RPMI-8226 leukemia
[9] = tested on: HOP-62 NSCLC
[10] = tested on: NCI-H226 lung

| SMILES | TGI [1] [µM] | TGI [2] [µM] | TGI [3] [µM] | TGI [4] [µM] | TGI [5] [µM] | TGI [6] [µM] | TGI [7] [µM] | TGI [8] [µM] | TGI [9] [µM] | GI50 [1] [µM] | GI50 [2] [µM] | GI50 [3] [µM] | GI50 [5] [µM] | GI50 [6] [µM] | GI50 [7] [µM] | GI50 [8] [µM] | GI50 [9] [µM] | TGI [10] [µM] | GI50 [10] [µM] | GI50 [4] [µM] |
| --- | --- | --- | --- | --- | --- | --- | --- | --- | --- | --- | --- | --- | --- | --- | --- | --- | --- | --- | --- | --- |
| CC(C)(C(=O)NN)c1ccccc1 | > 100 | > 100 | > 100 | > 100 | > 100 | > 100 | > 100 | > 100 | > 100 | – | – | – | – | – | – | – | – | – | – | – |
| CN(C)c1ccc2c(NCCCCCCNc3ccnc4cc(N(C)C)ccc34)ccnc2c1 | 79.6 | – | > 100 | > 100 | 20.5 | – | – | – | 67.9 | – | – | – | – | – | – | – | – | – | – | – |
| CCN=C1C=CC(=C(c2ccc(N(C)C)cc2)c2ccc(N(C)C)cc2)c2ccccc21 | 1.19 | 0.332 | 0.174 | – | 1.7 | 3.94 | 1.01 | 0.0555 | 0.578 | 0.215 | 0.0833 | 0.0358 | 0.0816 | 0.636 | 0.0528 | 0.0165 | 0.0825 | – | – | – |
| O=C(NCCCCCCNC(=O)c1cccc2ccccc12)c1cccc2ccccc12 | > 100 | 9.55 | 53.9 | > 100 | > 100 | – | 44.3 | > 100 | 48.3 | – | – | – | – | – | – | – | – | 53 | – | – |
| C=C1C(=O)OC2CC3(C)C=CC(=O)C(=C)C3CC12 (stereo not drawn) | 8.05 | 14.7 | 2.54 | 2.92 | 4.92 | – | 1.86 | 3.22 | 19.2 | – | – | – | – | – | – | – | – | 25.8 | – | – |
| O=C(CC1Sc2ccccc2NC1=O)Nc1cc(Cl)ccc1Cl (stereo not drawn) | > 100 | > 100 | > 100 | > 100 | > 100 | – | > 100 | > 100 | – | – | – | – | – | – | – | – | – | > 100 | – | – |
| O=C(CCn1[nH]c(=O)c(Cl)c(Cl)c1=O)NOCCCc1ccccc1 | > 100 | > 100 | > 100 | > 100 | > 100 | – | > 100 | > 100 | > 100 | – | – | – | – | – | – | – | – | > 100 | – | – |
| COC(=O)CCC(=O)N1Cc2cc(C)ccc2N(C(=O)CCC(=O)OC)Cc2cc(C)ccc21 | > 100 | – | > 100 | > 100 | > 100 | – | > 100 | > 100 | > 100 | – | – | – | – | – | – | – | – | > 100 | – | – |
| Cn1c(=O)c2[nH]c(/N=N/N3CCN(CCO)CC3)nc2n(C)c1=O | > 100 | – | > 100 | > 100 | > 100 | > 100 | > 100 | > 100 | > 100 | – | – | – | – | – | – | – | – | > 100 | – | – |
| CC1(C)CCC2(C(=O)OC3OC(CO)C(O)C(O)C3O)CC[C@]3(C)C(=CCC4C5(C)CC[C@H](OC6OC(C(=O)O)C(O)C(O)C6O)C(C)(C)C5CCC43C)C2C1 (stereo partly drawn) | 9.41 | – | 2.38 | 1.92 | 18.1 | > 50 | 1.49 | 10.2 | 7.6 | 3.07 | – | 1.12 | 4.28 | > 50 | 0.807 | 0.776 | 2.22 | 6.31 | 1.49 | 0.887 |
| CC(=O)[O][Pb]([O]C(C)=O)([c]1ccccc1)[c]1ccccc1 | > 100 | > 77.7 | > 59.1 | 31.1 | > 100 | – | 2.67 | > 100 | 52 | 25.9 | 4.41 | 4.81 | 7.15 | – | 1.19 | 4.12 | 25.2 | > 100 | 64.2 | 3.88 |
